Results taken from the supplement of paper PMC10331698.
± gives the standard deviation of the averaged measurements.

How the values were obtained:
Assay in all cases: level (log10 ratio to DMSO vehicle control); higher = higher biomarker level / cell amount than vehicle control
[1] = compound: C=C(C)C(=O)OCCC(F)(F)C(F)(F)C(F)(F)C(F)(F)C(F)(F)C(F)(F)F [6:2 Fluorotelomer methacrylate]; details: in DMSO
Protocol: (§1)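 BioMAP Diversity Plus panel of 12 human primary cell co-culture systems (3C, 4H, LPS, SAg, BT, BF4T, BE3C, CASM3C, HDF3CGF, KF3CT, MyoF, Mphg). Compounds were added 1 h before stimulation and left for 24 h (MyoF 48 h; BT 72 h for soluble read-outs or 6 d for IgG). Biomarkers were read by ELISA, cytotoxicity by SRB, PBMC viability and proliferation by Alamar Blue. Each well value was divided by the mean of 8 DMSO control wells on the same plate and log10 transformed; duplicate blinded samples were tested at 4 concentrations.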

[2] = compound: C=CC(=O)OCC(F)(F)C(F)(F)C(F)(F)COC(=O)C=C [1H,1H,5H,5H-Perfluoro-1,5-pentanediol diacrylate]; details: 6700 nM; in DMSO
Protocol: as §1

[3] = compound: COC(=O)C(F)(F)C(F)(F)OC(F)(C(F)(F)F)C(F)(F)OC(F)=C(F)F [Methyl perfluoro(3-(1-ethenyloxypropan-2-yloxy)propanoate)]; details: in DMSO
Protocol: as §1

[4] = compound: FC(F)(F)C(F)(F)C(F)(F)C(F)(F)C(F)(F)C(F)(F)C(F)(F)I [1-Iodopentadecafluoroheptane]; details: in DMSO
Protocol: as §1

[5] = compound: FC(F)(F)C(F)(F)C(F)(F)C(F)(F)C(F)(F)C(F)(F)CC1CO1 [3-(Perfluorohexyl)-1,2-epoxypropane]; details: in DMSO
Protocol: as §1

[6] = compound: FC(F)(F)C(F)(F)C(F)(F)CC1CO1 [1H,1H-Heptafluorobutyl epoxide]; details: in DMSO
Protocol: as §1

[7] = compound: FC(F)(F)C(F)(F)C(F)(F)CI [Heptafluorobutyl iodide]; details: in DMSO
Protocol: as §1

[8] = compound: FC(F)(F)C(F)(F)CNCC(F)(F)C(F)(F)F [Bis(1H,1H-perfluoropropyl)amine]; details: in DMSO
Protocol: as §1

[9] = compound: NC(=O)C(F)(F)C(F)(F)C(F)(F)C(F)(F)C(N)=O [Octafluoroadipamide]; details: in DMSO
Protocol: as §1

[10] = compound: NC(=O)C(F)(F)C(F)(F)C(F)(F)C(F)(F)F [Nonafluoropentanamide]; details: in DMSO
Protocol: as §1

[11] = compound: NC(=O)C(F)(F)C(F)(F)C(F)(F)C(F)F; details: in DMSO
Protocol: as §1

[12] = compound: NS(=O)(=O)C(F)(F)C(F)(F)C(F)(F)C(F)(F)C(F)(F)C(F)(F)F [Perfluorohexanesulfonamide]; details: in DMSO
Protocol: as §1

[13] = compound: O=C(O)C(F)(F)C(F)(F)C(F)(F)C(F)(F)C(F)(F)C(F)(F)C(F)(F)C(F)(F)C(F)(F)C(F)F [11-H-Perfluoroundecanoic acid]; details: in DMSO
Protocol: as §1

[14] = compound: O=C(O)C=CC(F)(C(F)(F)F)C(F)(F)F [3-(Perfluoroisopropyl)-2-propenoic acid]; details: in DMSO
Protocol: as §1

[15] = compound: O=S(=O)(Cl)C(F)(F)C(F)(F)C(F)(F)C(F)(F)C(F)(F)C(F)(F)C(F)(F)C(F)(F)F [Perfluoro-1-octanesulfonyl chloride]; details: in DMSO
Protocol: as §1

[16] = compound: O=S(=O)(F)C(F)(F)C(F)(F)C(F)(F)C(F)(F)C(F)(F)C(F)(F)C(F)(F)C(F)(F)F [Perfluorooctanesulfonyl fluoride]; details: in DMSO
Protocol: as §1

[17] = compound: O=S(=O)(O)C(F)(F)C(F)(F)C(F)(F)C(F)(F)C(F)(F)C(F)(F)C(F)(F)C(F)(F)C(F)(F)C(F)(F)F [Sodium perfluorodecanesulfonate]; details: in DMSO
Protocol: as §1

[18] = compound: O=S(=O)(O)CCC(F)(F)C(F)(F)C(F)(F)C(F)(F)C(F)(F)C(F)(F)F [6:2 Fluorotelomer sulfonic acid]; details: in DMSO
Protocol: as §1

[19] = compound: OCC(F)(F)C(F)(F)C(F)(F)CO [Hexafluoroamylene glycol]; details: in DMSO
Protocol: as §1

Test System: 3C:CD54/ICAM-1
- level (log10) ([1]; 6700 nM): -0.003 ± 0.0042
- level (log10) ([1]; 20000 nM): -0.014 ± 0.011
- level (log10) ([1]; 60000 nM): 0.0025 ± 0.015
- level (log10) [2]: -0.03 ± 0.014
- level (log10) ([3]; 6700 nM): -0.02 ± 0.0042
- level (log10) ([3]; 20000 nM): -0.0045 ± 0.016
- level (log10) ([4]; 6700 nM): -0.0115 ± 0.00071
- level (log10) ([4]; 20000 nM): 0.014 ± 0.016
- level (log10) ([5]; 6700 nM): -0.0115 ± 0.00071
- level (log10) ([5]; 20000 nM): -0.0275 ± 0.015
- level (log10) ([5]; 60000 nM): -0.015 ± 0.011
- level (log10) ([6]; 6700 nM): -0.02 ± 0.0071
- level (log10) ([6]; 20000 nM): -0.0135 ± 0.005
- level (log10) ([6]; 60000 nM): -0.003 ± 0.0057
- level (log10) ([7]; 6700 nM): -0.0075 ± 0.015
- level (log10) ([7]; 20000 nM): -0.0035 ± 0.0092
- level (log10) ([7]; 60000 nM): -0.0055 ± 0.005
- level (log10) ([8]; 6700 nM): 0 ± 0.016
- level (log10) ([8]; 20000 nM): 0.001 ± 0.0085
- level (log10) ([8]; 60000 nM): 0.006 ± 0.0014
- level (log10) ([9]; 6700 nM): -0.0125 ± 0.0021
- level (log10) ([9]; 20000 nM): -0.019 ± 0.0071
- level (log10) ([9]; 60000 nM): -0.006 ± 0.0085
- level (log10) ([10]; 6700 nM): -0.0155 ± 0.005
- level (log10) ([10]; 20000 nM): -0.0025 ± 0.0092
- level (log10) ([10]; 60000 nM): 0.005 ± 0.021
- level (log10) ([11]; 6700 nM): -0.0095 ± 0.013
- level (log10) ([11]; 20000 nM): -0.0115 ± 0.019
- level (log10) ([11]; 60000 nM): -0.0095 ± 0.025
- level (log10) ([12]; 6700 nM): 0.013 ± 0.011
- level (log10) ([12]; 20000 nM): 0.002 ± 0.0085
- level (log10) ([12]; 60000 nM): 0.0065 ± 0.0078
- level (log10) ([13]; 6700 nM): -0.012 ± 0.023
- level (log10) ([13]; 20000 nM): -0.019 ± 0.0014
- level (log10) ([14]; 6700 nM): -0.013 ± 0.033
- level (log10) ([14]; 20000 nM): -0.0185 ± 0.025
- level (log10) ([14]; 60000 nM): -0.003 ± 0.013
- level (log10) ([15]; 6700 nM): -0.027 ± 0.0099
- level (log10) ([15]; 20000 nM): -0.0215 ± 0.023
- level (log10) ([15]; 60000 nM): -0.0045 ± 0.0078
- level (log10) ([16]; 6700 nM): -0.0025 ± 0.011
- level (log10) ([16]; 20000 nM): -0.007 ± 0.0042
- level (log10) ([16]; 60000 nM): 0.005 ± 0.0028
- level (log10) ([17]; 1500 nM): 0.0115 ± 0.005
- level (log10) ([17]; 4400 nM): -0.0015 ± 0.00071
- level (log10) ([17]; 13000 nM): 0.0115 ± 0.021
- level (log10) ([17]; 40000 nM): 0.0145 ± 0.0078
- level (log10) ([18]; 6700 nM): -0.012 ± 0.021
- level (log10) ([18]; 20000 nM): -0.006 ± 0.021
- level (log10) ([18]; 60000 nM): -0.004 ± 0.011
- level (log10) ([19]; 6700 nM): -0.01 ± 0.0085
- level (log10) ([19]; 20000 nM): -0.0325 ± 0.005
- level (log10) ([19]; 60000 nM): -0.016 ± 0.023

Test System: 3C:HLA-DR
- level (log10) ([1]; 6700 nM): -0.0015 ± 0.0092
- level (log10) ([1]; 20000 nM): -0.007 ± 0.0071
- level (log10) ([1]; 60000 nM): -0.005 ± 0.0099
- level (log10) [2]: -0.092 ± 0.078
- level (log10) ([3]; 6700 nM): 0.002 ± 0.0014
- level (log10) ([3]; 20000 nM): 0.0075 ± 0.0078
- level (log10) ([4]; 6700 nM): -0.019 ± 0.0057
- level (log10) ([4]; 20000 nM): -0.0075 ± 0.015
- level (log10) ([5]; 6700 nM): -0.0005 ± 0.0035
- level (log10) ([5]; 20000 nM): -0.006 ± 0.016
- level (log10) ([5]; 60000 nM): 0.0025 ± 0.016
- level (log10) ([6]; 6700 nM): 0.017
- level (log10) ([6]; 20000 nM): 0.002
- level (log10) ([6]; 60000 nM): 0.011 ± 0.0042
- level (log10) ([7]; 6700 nM): -0.0255 ± 0.013
- level (log10) ([7]; 20000 nM): -0.0125 ± 0.016
- level (log10) ([7]; 60000 nM): -0.0045 ± 0.013
- level (log10) ([8]; 6700 nM): 0.006 ± 0.0028
- level (log10) ([8]; 20000 nM): 0.0005 ± 0.021
- level (log10) ([8]; 60000 nM): 0.0145 ± 0.03
- level (log10) ([9]; 6700 nM): -0.0085 ± 0.023
- level (log10) ([9]; 20000 nM): 0.0055 ± 0.0021
- level (log10) ([9]; 60000 nM): 0.024 ± 0.014
- level (log10) ([10]; 6700 nM): -0.0095 ± 0.054
- level (log10) ([10]; 20000 nM): -0.007 ± 0.0099
- level (log10) ([10]; 60000 nM): 0.003 ± 0.0014
- level (log10) ([11]; 6700 nM): -0.006 ± 0.02
- level (log10) ([11]; 20000 nM): -0.002 ± 0.016
- level (log10) ([11]; 60000 nM): -0.005 ± 0.014
- level (log10) ([12]; 6700 nM): -0.017 ± 0.0014
- level (log10) ([12]; 20000 nM): -0.0555 ± 0.00071
- level (log10) ([12]; 60000 nM): -0.125 ± 0.011
- level (log10) ([13]; 6700 nM): 0.0055 ± 0.039
- level (log10) ([13]; 20000 nM): -0.001 ± 0.062
- level (log10) ([14]; 6700 nM): 0.0095 ± 0.005
- level (log10) ([14]; 20000 nM): -0.0135 ± 0.022
- level (log10) ([14]; 60000 nM): -0.003 ± 0.028
- level (log10) ([15]; 6700 nM): -0.0285 ± 0.0092
- level (log10) ([15]; 20000 nM): -0.013 ± 0.011
- level (log10) ([15]; 60000 nM): -0.0255 ± 0.056
- level (log10) ([16]; 6700 nM): -0.0045 ± 0.00071
- level (log10) ([16]; 20000 nM): -0.004 ± 0.0028
- level (log10) ([16]; 60000 nM): -0.003 ± 0.011
- level (log10) ([17]; 1500 nM): -0.011 ± 0.011
- level (log10) ([17]; 4400 nM): -0.021 ± 0.02
- level (log10) ([17]; 13000 nM): -0.018 ± 0.0085
- level (log10) ([17]; 40000 nM): -0.0615 ± 0.016
- level (log10) ([18]; 6700 nM): -0.0075 ± 0.025
- level (log10) ([18]; 20000 nM): -0.0145 ± 0.0078
- level (log10) ([18]; 60000 nM): -0.0065 ± 0.0035
- level (log10) ([19]; 6700 nM): -0.0225 ± 0.0064
- level (log10) ([19]; 20000 nM): -0.0205 ± 0.00071
- level (log10) ([19]; 60000 nM): -0.015 ± 0.0042
